Where two headings read alike, the source gives them in different places.
What was measured:
human TRPV3 = target: T1, human TRPV3 (Homo sapiens, UniProt Q8NET8); assay: In vitro antagonism of recombinant human TRPV3 activation (FLIPR Tetra calcium assay); assay type: cell-based; conditions: HEK293 cells stably expressing human TRPV3, agonist 2-APB at 80 μM
T1 construct: expressed in transfected cells
T1 sequence (Q8NET8 1-790): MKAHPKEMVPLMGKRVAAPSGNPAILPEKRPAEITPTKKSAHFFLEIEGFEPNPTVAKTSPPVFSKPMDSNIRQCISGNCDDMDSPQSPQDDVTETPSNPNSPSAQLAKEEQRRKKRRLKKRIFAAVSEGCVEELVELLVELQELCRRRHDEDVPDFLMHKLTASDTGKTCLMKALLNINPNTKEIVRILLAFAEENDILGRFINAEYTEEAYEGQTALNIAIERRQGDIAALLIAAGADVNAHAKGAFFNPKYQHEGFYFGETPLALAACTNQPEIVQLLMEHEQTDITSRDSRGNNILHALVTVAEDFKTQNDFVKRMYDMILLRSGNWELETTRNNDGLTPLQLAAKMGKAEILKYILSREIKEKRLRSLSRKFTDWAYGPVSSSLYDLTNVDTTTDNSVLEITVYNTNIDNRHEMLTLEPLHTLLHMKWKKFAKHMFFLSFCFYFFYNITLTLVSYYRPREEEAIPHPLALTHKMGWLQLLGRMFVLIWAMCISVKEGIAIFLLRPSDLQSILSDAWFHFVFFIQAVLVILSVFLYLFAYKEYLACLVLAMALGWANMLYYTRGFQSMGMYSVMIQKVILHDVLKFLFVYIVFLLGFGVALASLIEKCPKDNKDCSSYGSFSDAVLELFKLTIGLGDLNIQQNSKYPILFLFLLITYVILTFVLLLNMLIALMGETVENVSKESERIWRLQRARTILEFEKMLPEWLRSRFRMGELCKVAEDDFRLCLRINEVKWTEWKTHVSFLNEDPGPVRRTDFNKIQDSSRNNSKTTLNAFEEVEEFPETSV
Summary of the method: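 Calcium flux read over a 10 min run: compound added at 10 s to Calcium-4-loaded human TRPV3-HEK293 cells, agonist 2-APB (80 μM, its EC80) after 3 min. IC50 derived from peak-minus-baseline signal as percentage of uninhibited 2-APB response, typically averaged over at least two runs.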

[1] = In vitro human microsomal stability assay; assay type: in vitro ADME; conditions: human, microsomes, 0.5 h, 0.5 μM, pH 7.4
Summary of the method: (§1)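 Incubations ran at 37° C. in microsomal preparations of rat (Sprague-Dawley) or human liver, with NADPH present, including at time zero.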

[2] = In vitro rat microsomal stability assay; assay type: in vitro ADME, rat (Sprague-Dawley); conditions: Sprague-Dawley, rat, microsomes, 0.5 h, 0.5 μM, pH 7.4
Summary of the method: as §1

[3] = actual measured value shown parenthetically, in most cases average of at least two runs, read-out: IC50
[4] = reported range, read-out: IC50 (range class)

Row | SMILES | IC50 (human TRPV3; [3]) [µM] | IC50 (human TRPV3; [4]) [µM] | HUMAN MICROSOMAL STABILITY (% REMAINING AFTER 30 MINUTES) [1] [%] | RAT MICROSOMAL STABILITY (% REMAINING AFTER 30 MINUTES) [2] [%]
1 | OC(c1ccccn1)C1(c2ccc(Cl)c(Cl)c2)COC1 (centres unmarked) [Example 87, [3-(3,4-dichlorophenyl)oxetan-3-yl](pyridin-2-yl)methanol] | > 20 | > 20 | 47 | 8.6
2 | N[C@H]1CCC[C@H]1[C@H](O)C1(c2ccc(Cl)c(Cl)c2)CCC1 [Example 217, (S)-[(1R,2S)-2-aminocyclopentyl][1-(3,4-dichlorophenyl)cyclobutyl]-methanol] | 3.99 | – | 73 | 68
3 | OC(C1CCCc2cccnc21)C1(c2ccccc2OC(F)(F)F)CCC1 (stereo not drawn) [Example 191, (anti)-5,6,7,8-tetrahydroquinolin-8-yl{1-[2-(trifluoromethoxy)phenyl]-cyclobutyl}methanol] | > 7.4 | – | <0.01 | <0.01
4 | Cc1ccc(CC2(C(O)c3ccccn3)CCC2)cc1 (centres unmarked) [Example 52, [1-(4-methylbenzyl)cyclobutyl](pyridin-2-yl)methanol] | 5.02 | – | 1.7 | 0.05
5 | OC(c1ccccn1)C1(C2CCOC2)CCC1 (centres unmarked) [Example 284, pyridin-2-yl[1-(tetrahydrofuran-3-yl)cyclobutyl]methanol] | > 20 | > 20 | >85 | 16
6 | CC(c1ccc(Cl)cc1)C1(C(O)c2ccccn2)CCC1 (centres unmarked) [Example 49, {1-[1-(4-chlorophenyl)ethyl]cyclobutyl}(pyridin-2-yl)methanol] | 3.27 | – | 15 | 0.13
7 | OC(c1ccccn1)C1(C2CCOc3ccccc32)CCC1 (centres unmarked) [Example 57, [1-(3,4-dihydro-2H-chromen-4-yl)cyclobutyl](pyridin-2-yl)methanol] | 9.29 | – | 16 | 10
8 | CC(C)(C)OC(=O)N1CCC(c2ccc(OC(F)(F)F)cc2)(C(O)c2ccccn2)CC1 (centres unmarked) [Example 157, tert-butyl 4-[hydroxy(pyridin-2-yl)methyl]-4-[4-(trifluoromethoxy)phenyl]-piperidine-1-carboxylate] | > 20 | > 20 | 28 | 0.93
9 | COc1ccc(C(O)C2(c3ccc(Cl)c(Cl)c3)CCC2)nc1 (centres unmarked) [Example 287, [1-(3,4-dichlorophenyl)cyclobutyl](5-methoxypyridin-2-yl)methanol] | > 20 | > 20 | 15 | <0.01
10 | OC(C1CCCc2cccnc21)C1(c2ccc(F)c(F)c2)CCC1 (single isomer, unassigned) [Example 169, (anti)-[1-(3,4-difluorophenyl)cyclobutyl][5,6,7,8-tetrahydroquinolin-8-yl]-methanol] | 5.82 | – | <0.01 | <0.01
11 | OC(c1ccccn1)C1(C2=CCC(F)(F)CC2)CCC1 (centres unmarked) [Example 260, [1-(4,4-difluorocyclohex-1-en-1-yl)cyclobutyl](pyridin-2-yl)methanol] | 5.32 | – | 12 | <0.01
12 | OC(c1ccccn1)C1(C2CCCOC2)CCC1 (centres unmarked) [Example 281, pyridin-2-yl[1-(tetrahydro-2H-pyran-3-yl)cyclobutyl]methanol] | 7.69 | – | >85 | 0.054
13 | Cc1ccccc1C1(C(O)c2ccccn2)CCC1 (centres unmarked) [Example 7, [1-(2-methylphenyl)cyclobutyl](pyridin-2-yl)methanol] | 17.5 | – | 0.15 | 0.32
14 | CN1CC(c2ccc(C(F)(F)F)cc2)(C(O)c2ccccn2)C1 (centres unmarked) [Example 155, {1-methyl-3-[4-(trifluoromethyl)phenyl]azetidin-3-yl}(pyridin-2-yl)-methanol] | 17 | – | >85 | 76
15 | O=C1CC(c2cccc(OC(F)(F)F)c2)(C(O)c2ccccn2)C1 (centres unmarked) [Example 237, 3-[hydroxy(pyridin-2-yl)methyl]-3-[3-(trifluoromethoxy)phenyl]-cyclobutanone] | 3.66 | – | 51 | 50
16 | O=C1CC(c2cncc(C(F)(F)F)c2)([C@H](O)c2ccccn2)C1 [Example 296, 3-[(S)-hydroxy(pyridin-2-yl)methyl]-3-[5-(trifluoromethyl)pyridin-3-yl]-cyclobutanone] | > 20 | > 20 | 67 | 12

Stronger by IC50 (human TRPV3; [3]), values ahead:

Row | IC50 (human TRPV3; [3]) [µM] | IC50 (human TRPV3; [4]) [µM] | HUMAN MICROSOMAL STABILITY (% REMAINING AFTER 30 MINUTES) [1] [%] | RAT MICROSOMAL STABILITY (% REMAINING AFTER 30 MINUTES) [2] [%] | SMILES
17 | 3.11 | – | 4.0 | <0.01 | Nc1cccnc1C(O)C1(c2ccc(Cl)c(Cl)c2)CCC1 (centres unmarked) [Example 130, (3-aminopyridin-2-yl)[1-(3,4-dichlorophenyl)cyclobutyl]methanol]
18 | 2.95 | – | <0.01 | <0.01 | OC(C1CCCc2cccnc21)C1(c2cccc(C(F)(F)F)c2)CCC1 (single isomer, unassigned) [Example 179, (anti)-5,6,7,8-tetrahydroquinolin-8-yl{1-[3-(trifluoromethyl)phenyl]-cyclobutyl}methanol]
19 | 2.41 | – | 64 | 10 | CN(C)N=C1CC(c2ccc(OC(F)(F)F)cc2)([C@H](O)c2ccccn2)C1 (stereo partly drawn) [Example 267, (S)-{3-(dimethylhydrazinylidene)-1-[4-(trifluoromethoxy)phenyl]-cyclobutyl}(pyridin-2-yl)methanol]
20 | 0.76 | – | 11 | 0.94 | OC(CC1(c2cccc(OC(F)(F)F)c2)CCC1)c1ccccn1 (centres unmarked) [Example 77, 1-(pyridin-2-yl)-2-{1-[3-(trifluoromethoxy)phenyl]cyclobutyl}ethanol]
21 | 0.75 | – | 37 | 25 | OC(c1ccccn1)C1(c2cc(C(F)(F)F)ccn2)CCC1 (centres unmarked) [Example 116, pyridin-2-yl{1-[4-(trifluoromethyl)pyridin-2-yl]cyclobutyl}methanol]
22 | 0.74 | – | >85 | >85 | OC1CC(c2cc(C(F)(F)F)ccn2)(C(O)c2ccccn2)C1 [Example 282, cis-3-[(S)-hydroxy(pyridin-2-yl)methyl]-3-[4-(trifluoromethyl)pyridin-2-yl]cyclobutanol]
23 | 0.46 | – | 35 | <0.01 | Cc1ccccc1C1(C(O)c2ccccn2)CCCO1 (centres unmarked) [Example 90, [2-(2-methylphenyl)tetrahydrofuran-2-yl](pyridin-2-yl)methanol]
24 | 0.38 | – | 0.13 | 0.73 | Cc1cccc(C2(C(O)c3ccccn3)CCC2)c1 (centres unmarked) [Example 8, [1-(3-methylphenyl)cyclobutyl](pyridin-2-yl)methanol]
25 | 0.32 | – | 17 | 0.64 | OC(c1ccccn1)C1(c2cccc(F)c2)CCC1 (centres unmarked) [Example 2, [1-(3-fluorophenyl)cyclobutyl](pyridin-2-yl)methanol]
26 | 0.2 | – | 72 | 73 | OC1CC(c2ccc(F)c(Cl)c2)([C@H](O)c2ccccn2)C1 (stereo partly drawn) [Example 276, 3-(3-chloro-4-fluorophenyl)-3-[(S)-hydroxy(pyridin-2-yl)methyl]-cyclobutanol]
